Where only a bound is given, the exact number is not on record here.

The assay has as its target T1, human kinase Mps-1 (Homo sapiens, UniProt P33981).
T1 construct: N-terminally GST-tagged human full length recombinant Mps-1 kinase; GST (N); purchased Invitrogen, Karslruhe, Germany PV4071
T1 sequence (P33981 1-857): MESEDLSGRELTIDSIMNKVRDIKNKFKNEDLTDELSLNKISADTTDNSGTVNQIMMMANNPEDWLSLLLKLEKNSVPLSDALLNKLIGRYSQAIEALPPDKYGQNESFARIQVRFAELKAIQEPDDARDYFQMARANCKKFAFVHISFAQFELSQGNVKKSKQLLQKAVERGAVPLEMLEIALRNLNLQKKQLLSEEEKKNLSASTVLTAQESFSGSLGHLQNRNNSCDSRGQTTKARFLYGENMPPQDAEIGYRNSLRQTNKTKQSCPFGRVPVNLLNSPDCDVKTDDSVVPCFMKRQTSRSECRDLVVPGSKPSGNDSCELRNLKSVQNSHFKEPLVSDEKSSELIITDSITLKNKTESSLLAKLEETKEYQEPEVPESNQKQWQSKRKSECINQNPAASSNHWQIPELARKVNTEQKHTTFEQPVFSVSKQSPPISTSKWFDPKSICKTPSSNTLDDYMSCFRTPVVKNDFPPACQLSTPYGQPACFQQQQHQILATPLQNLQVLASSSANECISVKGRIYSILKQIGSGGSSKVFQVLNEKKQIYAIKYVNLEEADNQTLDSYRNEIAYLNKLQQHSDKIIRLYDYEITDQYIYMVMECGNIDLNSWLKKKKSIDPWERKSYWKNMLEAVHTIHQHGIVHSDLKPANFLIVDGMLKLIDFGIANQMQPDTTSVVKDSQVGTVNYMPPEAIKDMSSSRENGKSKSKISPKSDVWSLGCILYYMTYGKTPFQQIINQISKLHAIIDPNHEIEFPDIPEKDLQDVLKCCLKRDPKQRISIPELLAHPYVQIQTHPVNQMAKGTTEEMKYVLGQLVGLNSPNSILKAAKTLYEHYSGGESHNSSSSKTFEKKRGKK
Briefly: Mps-1 kinase assay (TR-FRET). It is filed as biochemical. As to conditions: Mps-1 TR-FRET kinase assay; avg; read-out: Mps1 avg (IC50 [mol/l]). The essentials: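 GST-tagged full-length recombinant human Mps-1 (~0.5 nM) pre-incubated 15 min with compound, then reacted 60 min at 22 °C with 10 μM ATP and 1 μM biotinylated peptide in Hepes pH 7.7 buffer. EDTA-stopped; TR-FRET (Eu anti-phospho-Ser/Thr to SA-XLent) 665/620 nm ratio normalised to no-inhibitor and no-enzyme controls.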
(In TR-FRET formats the signal depends on donor and acceptor labels being close together.)
As for `Cc1nsc(Nc2cnc(C(F)(F)F)cn2)c1C(=O)Nc1ccc(C(=O)N2CCN(C)CC2)cc1` [Example 262, 3-methyl-N-{4-[(4-methylpiperazin-1 yl)carbonyl]phenyl}-5-{[5-(trifluoromethyl)pyrazin-2-yl]amino}-1,2-thiazole-4-carboxamide], the IC50 was above 20 µM.
As for `Cc1nsc(Nc2cnc(C(F)(F)F)cn2)c1C(=O)Nc1ccc(F)c(OC2CCN(CC(F)(F)F)CC2)c1` [Example 264, N-(4-fluoro-3-{[1-(2,2,2-trifluoroethyl)piperidin-4-yl]oxy}phenyl)-3-methyl-5-{[5-(trifluoromethyl)pyrazin-2-yl]amino}-1,2-thiazole-4-carboxamide], the figure is above 20 µM.
For the compound `Cc1nsc(Nc2cnc(C(F)(F)F)cn2)c1C(=O)Nc1ccc(F)c(OCC2CCN(C(CF)CF)CC2)c1` [Example 312, N-(3-{[1-(1,3-difluoropropan-2-yl)piperidin-4-yl]methoxy}-4-fluorophenyl)-3-methyl-5-{[5-(trifluoromethyl)pyrazin-2-yl]amino}-1,2-thiazole-4-carboxamide], the IC50 is at least 20 µM.
As for `Cc1nsc(Nc2cnc(C(F)(F)F)cn2)c1C(=O)Nc1ccc(OCCNCC(F)(F)F)nc1` [Example 322, 3-methyl-N-(6-{2-[(2,2,2-trifluoroethyl)amino]ethoxy}pyridin-3-yl)-5-{[5-(trifluoromethyl)pyrazin-2-yl]amino}-1,2-thiazole-4-carboxamide], the figure is at least 20 µM; as for `Cc1nsc(Nc2cnc(C(F)(F)F)cn2)c1C(=O)Nc1ccc(N(C)C)c(OCCCN(C)CCC(F)(F)F)c1` [Example 300, N-[4-(dimethylamino)-3-{3-[methyl(3,3,3-trifluoropropyl)amino]propoxy}phenyl]-3-methyl-5-{[5-(trifluoromethyl)pyrazin-2-yl]amino}-1,2-thiazole-4-carboxamide], above 20 µM; as for `CC(=O)N1CCC(Oc2ccc(NC(=O)c3c(C)nsc3Nc3cnc4ccccc4n3)cn2)CC1` [Example 22, N-{6-[(1-acetylpiperidin-4-yl)oxy]pyridin-3-yl}-3-methyl-5-(quinoxalin-2-ylamino)-1,2-thiazole-4-carboxamide], at least 20 µM.
The same measure for `Cc1nsc(Nc2cnc3ccccc3n2)c1C(=O)Nc1cccc(NS(=O)(=O)C2CCN(C(=O)OC(C)(C)C)CC2)c1` [Example 258, tert-butyl 4-{[3-({[3-methyl-5-(quinoxalin-2-ylamino)-1,2-thiazol-4-yl]carbonyl}amino)phenyl]sulfamoyl} piperidine-1-carboxylate]: above 20 µM.
With `Cc1nsc(Nc2cnc3ccccc3n2)c1C(=O)Nc1ccc(OC2CCN(CC(F)(F)F)CC2)nc1` [Example 21, 3-Methyl-5-(quinoxalin-2-ylamino)-N-(6-{[1-(2,2,2-trifluoroethyl)piperidin-4-yl]oxy}-pyridin-3-yl)-1,2-thiazole-4-carboxamide], the IC50 is at least 20 µM.
The same measure for `CCNC(=O)c1cccc(NC(=O)c2c(C)nsc2Nc2ccc(C#N)cn2)c1` [Example 252, 5-[(5-cyanopyridin-2-yl)amino]-N-[3-(ethylcarbamoyl)phenyl]-3-methyl-1,2-thiazole-4-carboxamide]: above 20 µM; for `Cc1nsc(Nc2cnc3ccccc3n2)c1C(=O)Nc1cccc(C(=O)NC2CC2)c1` [Example 249, N-[3-(cyclopropylcarbamoyl)phenyl]-3-methyl-5-(quinoxalin-2-ylamino)-1,2-thiazole-4-carboxamide]: above 20 µM; for `Cc1nsc(Nc2cnc3ccccc3n2)c1C(=O)Nc1cccc(NS(=O)(=O)C2CN(CCC(F)(F)F)C2)c1` [Example 288, 3-methyl-5-(quinoxalin-2-ylamino)-N-[3-({[1-(3,3,3-trifluoropropyl)azetidin-3-yl]sulfonyl}amino)phenyl]-1,2-thiazole-4-carboxamide]: above 20 µM.
As for `Cc1nsc(Nc2cnc(C(F)(F)F)cn2)c1C(=O)Nc1ccc(OCCCNCC(F)F)nc1` [Example 293, N-(6-{3-[(2,2-difluoroethyl)amino]propoxy}pyridin-3-yl)-3-methyl-5-{[5-(trifluoromethyl)pyrazin-2-yl]amino}-1,2-thiazole-4-carboxamide], the figure is above 20 µM; as for `Cc1nsc(Nc2cnc(C(F)(F)F)cn2)c1C(=O)Nc1ccc(C(=O)NC2CN(CC(F)(F)F)C2)cc1` [Example 270, 3-methyl-N-(4-{[1-(2,2,2-trifluoroethyl)azetidin-3-yl]carbamoyl}phenyl)-5-{[5-(trifluoromethyl)pyrazin-2-yl]amino}-1,2-thiazole-4-carboxamide], above 20 µM.
The same measure for `Cc1nsc(Nc2cnc(C(F)(F)F)cn2)c1C(=O)Nc1ccc(F)c(OCCCN(C)CC(F)F)c1` [Example 301, N-(3-{3-[(2,2-difluoroethyl)(methyl)amino]propoxy}-4-fluorophenyl)-3-methyl-5-{[5-(trifluoromethyl)pyrazin-2-yl]amino}-1,2-thiazole-4-carboxamide]: above 20 µM.
As to `Cc1nsc(Nc2cnc(C(F)(F)F)cn2)c1C(=O)Nc1ccc(F)c(OCCCN(C)CC(F)(F)F)c1` [Example 302, N-(4-fluoro-3-{3-[methyl(2,2,2-trifluoroethyl)amino]propoxy}phenyl)-3-methyl-5-{[5-(trifluoromethyl)pyrazin-2-yl]amino}-1,2-thiazole-4-carboxamide], the IC50 is above 20 µM.
In the case of `COC(=O)CCCc1ccc(NC(=O)c2c(C)nsc2Nc2cc(C#N)ccn2)cc1` [Example 256, methyl 4-{4-[({5-[(4-cyanopyridin-2-yl)amino]-3-methyl-1,2-thiazol-4-yl}carbonyl)amino]phenyl}butanoate], the IC50 was above 20 µM.
As for `Cc1nsc(Nc2cnc(C(F)(F)F)cn2)c1C(=O)Nc1ccc(OCCCNCCC(F)(F)F)nc1` [Example 294, 3-methyl-5-{[5-(trifluoromethyl)pyrazin-2-yl]amino}-N-(6-{3-[(3,3,3-trifluoropropyl)amino]propoxy}pyridin-3-yl)-1,2-thiazole-4-carboxamide], the figure is above 20 µM; as for `Cc1nsc(Nc2cnc(C(F)(F)F)cn2)c1C(=O)Nc1ccc(OCCCO)nc1` [Example 279, N-[6-(3-hydroxypropoxy)pyridin-3-yl]-3-methyl-5-{[5-(trifluoromethyl)pyrazin-2-yl]amino}-1,2-thiazole-4-carboxamide], above 20 µM.
The same measure for `Cc1nsc(Nc2cnc(C(F)(F)F)cn2)c1C(=O)Nc1ccc(OC2CCN(CC(F)F)C2)nc1` (stereo not drawn) [Example 296, N-(6-{[1-(2,2-difluoroethyl)pyrrolidin-3-yl]oxy}pyridin-3-yl)-3-methyl-5-{[5-(trifluoromethyl)pyrazin-2-yl]amino}-1,2-thiazole-4-carboxamide]: above 20 µM; for `CCN1CCC(Oc2ccc(NC(=O)c3c(C)nsc3Nc3cc(C#N)ccn3)cn2)CC1` [Example 26, 5-[(4-Cyanopyridin-2-yl)amino]-N-{6-[(1-ethylpiperidin-4-yl)oxy]pyridin-3-yl}-3-methyl-1,2-thiazole-4-carboxamide]: at least 20 µM; for `Cc1nsc(Nc2cnc3ccccc3n2)c1C(=O)Nc1ccc(N2CCN(C(=O)OC(C)(C)C)CC2)nc1` [Example 248, tert-butyl 4-[5-({[3-methyl-5-(quinoxalin-2-ylamino)-1,2-thiazol-4-yl]carbonyl}amino)pyridin-2-yl]piperazine-1-carboxylate]: above 20 µM.
The same measure for `Cc1nsc(Nc2cnc3ccccc3n2)c1C(=O)Nc1cccc(NS(=O)(=O)C2CCN(CC(F)(F)F)CC2)c1` [Example 281, 3-methyl-5-(quinoxalin-2-ylamino)-N-[3-({[1-(2,2,2-trifluoroethyl)piperidin-4-yl]sulfonyl}amino)phenyl]-1,2-thiazole-4-carboxamide]: above 20 µM.
With `Cc1nsc(Nc2cnc(C(F)(F)F)cn2)c1C(=O)Nc1ccc(F)c(OCCCN(C)CCC(F)(F)F)c1` [Example 303, N-(4-fluoro-3-{3-[methyl(3,3,3-trifluoropropyl)amino]propoxy}phenyl)-3-methyl-5-{[5-(trifluoromethyl)pyrazin-2-yl]amino}-1,2-thiazole-4-carboxamide], the IC50 is at least 20 µM.
The same measure for `Cc1nsc(Nc2cnc3ccccc3n2)c1C(=O)Nc1cccc(C(=O)NC(C)C)c1` [Example 253, N-[3-(isopropylcarbamoyl)phenyl]-3-methyl-5-(quinoxalin-2-ylamino)-1,2-thiazole-4-carboxamide]: above 20 µM.
